The results in this text go back to patent EP4782453A1 (Beyang Therapeutics Co., Ltd., priority 2023, dated 2025).

The target of the first assay is T1, Menin-MLL (Homo sapiens, UniProt O00255).
T1 construct: His-Menin (M1-L615 end); purchased BIORTUS BP9210
T1 sequence (O00255 1-615 isoform O00255-1): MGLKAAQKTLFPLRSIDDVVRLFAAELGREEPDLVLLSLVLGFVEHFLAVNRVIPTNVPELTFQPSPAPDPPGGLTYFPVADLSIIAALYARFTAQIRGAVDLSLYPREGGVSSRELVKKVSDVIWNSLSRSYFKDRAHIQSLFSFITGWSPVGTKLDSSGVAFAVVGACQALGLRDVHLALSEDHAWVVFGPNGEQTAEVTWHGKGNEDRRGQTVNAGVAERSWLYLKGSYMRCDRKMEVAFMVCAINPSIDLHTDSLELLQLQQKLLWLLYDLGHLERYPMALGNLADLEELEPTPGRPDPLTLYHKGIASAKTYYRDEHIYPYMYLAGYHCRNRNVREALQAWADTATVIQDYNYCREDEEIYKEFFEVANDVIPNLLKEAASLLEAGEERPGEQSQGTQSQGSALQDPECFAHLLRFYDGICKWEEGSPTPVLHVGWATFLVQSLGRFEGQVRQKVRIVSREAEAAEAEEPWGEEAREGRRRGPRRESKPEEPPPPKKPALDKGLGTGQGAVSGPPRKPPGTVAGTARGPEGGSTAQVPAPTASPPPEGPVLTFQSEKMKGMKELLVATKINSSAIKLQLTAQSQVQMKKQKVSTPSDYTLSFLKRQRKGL
Description: Inhibitory activity against Menin-MLL binding (fluorescence polarization). Conditions: Menin-MLL IC50, fluorescence polarization; 150 nM His-Menin, 15 nM FITC-MLL; 25°C for 60 min. The essentials: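 Fluorescence polarization competition: compound and 150 nM His-tagged menin (residues M1-L615) sit 15 min at 25 °C in pH 7.5 HEPES buffer with NaCl, DTT and BSA; 15 nM FITC-labelled MLL peptide then binds for 60 min. IC50 fitted sigmoidally from mP values, duplicate wells.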
For orientation: Fluorescence polarisation rises when a labelled molecule tumbles more slowly, as on binding a larger partner.
The IC50 is the concentration at which inhibition is half-maximal. As to `CCN(C(=O)c1cc(F)ccc1-c1cc(N2CCN(C(=O)[C@H]3N[C@@H]4CC[C@H]3C4)CC2)cn2c(C)ncc12)C(C)C` [Example 88], the IC50 stood at 52 nM.
For the molecule `Cc1ncc2c(-c3ccc(F)cc3C(=O)N(CC(F)F)C(C)C)cc(N3CCN(C(=O)C4NC5CCC4CC5)CC3)cn12` [Example 94, N-(2,2-difluoroethyl)-5-fluoro-2-(3-methyl-6-{4-[(1R,3S,4S)-2-azabicyclo[2.2.2]octan-3-carbonyl]piperazin-1-yl}imidazo[1,5-a]pyridin-8-yl)-N-(isopropyl)benzamide], the IC50 was determined as 44.5 nM.
The molecule `CCS(=O)(=O)N[C@H]1CC[C@H](CN2CC(Cc3cc(-c4ccc(F)cc4C(=O)N(CC(F)F)C(C)C)c4cnn(C)c4c3)C2)CC1` [Example 161, N-(2,2-difluoroethyl)-5-fluoro-2-{1-methyl-6-[(1-{[(1r,4r)-4-ethanesulfonamidocyclohexyl]methyl}azacyclobutan-3-yl)methyl]-1H-indazol-4-yl}-N-(isopropyl)benzamide] returned an IC50 of 33.5 nM.
For the molecule `CCN(C(=O)c1cc(F)ccc1-c1cc(C2CCN(C[C@]3(F)CC[C@@H](NS(=O)(=O)CC)CC3)C2)cn2c(C)ncc12)C(C)C` (stereo partly shown) [Compound 52, N-ethyl-5-fluoro-2-[3-methyl-6-(1-{[(1s,4s)-4-ethanesulfonamido-1-fluorocyclohexyl]methyl}pyrrolidin-3-yl)imidazo[1,5-a]pyridin-8-yl]-N-(isopropyl)benzamide], the IC50 is 28.5 nM.
The same measure, in the same setting: then `CCS(=O)(=O)N[C@H]1CC[C@H](CN2CC(c3cc(-c4ccc(F)cc4C(=O)N(CC(F)F)C(C)C)c4cnn(C)c4c3)C2)CC1` [Example 153, N-(2,2-difluoroethyl)-5-fluoro-2-[1-methyl-6-(1-{[(1r,4r)-4-ethanesulfonamidocyclohexyl]methyl}-azacyclobutan-3-yl)-1H-indazol-4-yl]-N-(isopropyl)benzamide], with 31 nM; and `CCN(C(=O)c1cc(F)ccc1-c1cc(N2CCN(C(=O)[C@@H]3CCC(C)(C)N3)CC2)cn2c(C)nc(Cl)c12)C(C)C` [Example 111], with 38 nM.

The same assay, now with this note: fluorescence polarization; 150 nM His-Menin, 15 nM FITC-MLL; 25°C for 60 min; read-out: Menin-MLL IC50.
With `Cc1nc(F)c2c(-c3ccc(F)cc3C(=O)N3CCOC[C@H]3C)cc(C3CN(C(CO)C4CCOCC4)C3)cn12` (stereo partly drawn) [Example 309, 2-[3-(1-fluoro-8-{4-fluoro-2-[(3R)-3-methylmorpholin-4-carbonyl]phenyl}-3-methylimidazo[1,5-a]pyridin-6-yl)azacyclobutan-1-yl]-2-(oxacyclohexan-4-yl)ethan-1-ol], the IC50 is 60 nM.
Same read-out and setting: then `CCN(C(=O)c1cc(F)ccc1-c1cc(C2CN([C@@H](CN3CCN(C)CC3)C(C)C)C2)cc2c1cnn2C)C(C)C` [Example 402-1, N-ethyl-5-fluoro-2-(1-methyl-6-{1-[(2R)-3-methyl-1-(4-methylpiperazin-1-yl)butan-2-yl]azacyclobutan-3-yl}-1H-indazol-4-yl)-N-(isopropyl)benzamide], with 110 nM; and `COCC1CN(CCC[C@@H](C(C)C)N2CC(c3cc(-c4ccc(F)cc4C(=O)N4CCOC[C@H]4C)c4cnn(C)c4c3)C2)C1` [Example 183-1], with 507 nM.
Still for that read-out and setting: the figure for `CC[C@H](C1CCN(C(C)=O)CC1)N1CC(c2cc(-c3ccc(F)cc3C(=O)N3CCOC[C@H]3C)c3c(F)nc(C)n3c2)C1` [Example 280-2, 1-{4-[(1R)-1-[3-(1-fluoro-8-{4-fluoro-2-[(3R)-3-methylmorpholin-4-carbonyl]phenyl}-3-methylimidazo[1,5-a]pyridin-6-yl)azacyclobutan-1-yl]propyl]piperidin-1-yl}ethan-1-one] is 160 nM; for `CCS(=O)(=O)N[C@H]1CC[C@H](CN2CC(c3cc(-c4ccc(F)cc4C(=O)N4CCC[C@H]4C)c4cnn(C)c4c3)C2)CC1` [Example 167] it is 57 nM.
Still for that read-out and setting: the figure for `CO[C@@H]1CN(CCC[C@H](C(C)C)N2CC(c3cc(-c4ccc(F)cc4C(=O)N4CCOC[C@H]4C)c4c(F)nc(C)n4c3)C2)C[C@H]1O` [Example 291-1, (3R,4R)-1-[(4R)-4-[3-(1-fluoro-8-{4-fluoro-2-[(3R)-3-methylmorpholin-4-carbonyl]phenyl}-3-methylimidazo[1,5-a]pyridin-6-yl)azacyclobutan-1-yl]-5-methylhexyl]-4-methoxypyrrolidin-3-ol] is 6 nM; for `Cc1nc(F)c2c(-c3ccc(F)cc3C(=O)N(CC(F)F)C(C)C)cc(C3CN(C(=O)[C@H]4NCC[C@@H]4C)C3)cn12` [Example 156] it is 30 nM.
For the molecule `C=C1CN[C@H](C(=O)N2CC(c3cc(-c4ccc(F)cc4C(=O)N(CC)C(C)C)c4c(F)nc(C)n4c3)C2)C1` [Example 130], the IC50 amounted to 62 nM.
Take `Cc1nc(F)c2c(-c3ccc(F)cc3C(=O)N3CCOC[C@H]3C)cc(C3CN([C@H](CO[C@H]4CCN(C)C4)C(C)C)C3)cn12` [Example 322, (3R)-4-[5-fluoro-2-(1-fluoro-3-methyl-6-{1-[(2S)-3-methyl-1-{[(3S)-1-methylpyrrolidin-3-yl]oxy}butan-2-yl]azacyclobutan-3-yl}imidazo[1,5-a]pyridin-8yl)benzoyl]-3-methylmorpholine]: the IC50 was 2 nM.
On the same count and under the same terms, the figure for `Cc1nc(F)c2c(-c3ccc(F)cc3C(=O)N3CCOC[C@H]3C)cc(C3CN(C(CC[C@H]4COCCN4C)C(C)C)C3)cn12` (stereo partly drawn) [Example 374, (3R)-4-{5-fluoro-2-[1-fluoro-3-methyl-6-(1-{4-methyl-1-[(3S)-4-methylmorpholin-3-yl]pentan-3-yl}azacyclobutan-3-yl)imidazo[1,5-a]pyridin-8-yl]benzoyl}-3-methylmorpholine] is 26 nM.
On to `CCN(C(=O)c1cc(F)ccc1-c1cc(C2CN([C@@H](CCCN3CCN(CCO)CC3)C(C)C)C2)cc2c1cnn2C)C(C)C` [Example 400-1], for which the IC50 was 220 nM.
Still for that read-out and setting: the figure for `CCN(C(=O)c1cc(F)ccc1-c1cc(C2(O)CN([C@H](CCCN3CCN(CCO)CC3)C(C)C)C2)cn2c(C)ncc12)C(C)C` [Example 464-1, N-ethyl-5-fluoro-2-(6-{3-hydroxyl-1-[(3R)-6-[4-(2-hydroxylethyl)piperazin-1-yl]-2-methylhexan-3-yl]azacyclobutan-3-yl}-3-methylimidazo[1,5-a]pyridin-8-yl)-N-(isopropyl)benzamide] is 15 nM; for `Cc1ncc2c(-c3ccc(F)cc3C(=O)N(CC(F)F)C(C)C)cc(C3CN([C@@H](CCCN4CCN(CCO)CC4)C(C)C)C3)cn12` [Example 459-2, N-(2,2-difluoroethyl)-5-fluoro-2-(6-{1-[(3S)-6-[4-(2-hydroxylethyl)piperazin-1-yl]-2-methylhexan-3-yl]azacyclobutan-3-yl}-3-methyl-imidazo[1,5-a]pyridin-8-yl)-N-(isopropyl)benzamide] it is 40 nM; for `CCN(C(=O)c1cc(F)ccc1-c1cc(N2CCN(C(=O)[C@H]3CCCN3)CC2)cn2c(C)ncc12)C(C)C` [Example 106] it is 153 nM.
The same measure, in the same setting: then `CC(=O)N1CCC([C@@H](C(C)C)N2CC(c3cc(-c4ccc(F)cc4C(=O)N4CCOC[C@H]4C)c4c(F)nc(C)n4c3)C2)CC1` [Example 357-2, 1-{4-[(1R)-1-[3-(1-fluoro-8-{4-fluoro-2-[(3R)-3-methylmorpholin-4-carbonyl]phenyl}-3-methylimidazo[1,5-a]pyridin-6-yl)azacyclobutan-1-yl]-2-methylpropyl]piperidin-1-yl}ethan-1-one], with 22 nM; and `COCCN(C)CCC[C@@H](C(C)C)N1CC(c2cc(-c3ccc(F)cc3C(=O)N3[C@H](C)COC[C@H]3C)c3cnn(C)c3c2)C1` [Example 186-1, [(4S)-4-[3-(4-{2-[(3R,5R)-3,5-dimethylmorpholin-4-carbonyl]-4-fluorophenyl}-1-methyl-1H-indazol-6-yl)azacyclobutan-1-yl]-5-methylhexyl](2-methoxyethyl)methylamine], with 262 nM.
Still for that read-out and setting: then `CCN(C(=O)c1cc(F)ccc1-c1cc(C2CCN(C[C@]3(O)CC[C@@H](NC(=O)OC(C)(C)C)CC3)C2)cc2c1cnn2C)C(C)C` (stereo partly shown) [Compound 54, N-[(1s,4s)-4-{[3-(4-{2-[ethyl(isopropyl)aminoformyl]-4-fluorophenyl}-1-methyl-1H-indazol-6-yl)pyrrolidin-1-yl]methyl}-4-hydroxylcyclohexyl]tert-butyl carbamate], with 105 nM.
Turning to `CCN(C(=O)c1cc(F)ccc1-c1cc(C2CN([C@@H](CN3CCN(CCO)CC3)C(C)C)C2)cc2c1cnn2C)C(C)C` [Example 416-1, N-ethyl-5-fluoro-2-(6-{1-[(2R)-1-[4-(2-hydroxyethyl)piperazin-1-yl]-3-methylbutan-2-yl]azacyclobutan-3-yl}-1-methyl-1H-indazol-4-yl)-N-(isopropyl)benzamide], the IC50 worked out at 150 nM.
`COC1(C(=O)N2CCC(CN3CC(c4cc(-c5ccc(F)cc5C(=O)N5CCOC[C@H]5C)c5c(F)nc(C)n5c4)C3)CC2)CC1` [Example 262]: the IC50 was found to be 257 nM.
